# Test results taken from the supplement of paper PMC10307832.
# What was measured:
# Assay in all cases: relative viability (nuclei count vs DMSO), 5 days (fraction); higher = more cells survive
# Serdemetan + Phenformin = compound: c1ccc2c(CCNc3ccc(Nc4ccncc4)cc3)c[nH]c2c1 [Serdemetan] + N=C(N)NC(=N)NCCc1ccccc1 [Phenformin] (partner 250 µM)
# Method in brief: (§1)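 Values are medians from duplicate plates. Each reflects relative viability, defined as the nuclei count of treated wells over that of vehicle wells. Lung cancer cell lines in 1536-well plates were pin-tool dosed one day after seeding with one drug alone or with a fixed anchor-drug dose plus five library-drug doses (not always all listed) in √10 steps, then fixed, stained and imaged at 4× after 5 days.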
# Serdemetan + Luminespib = compound: c1ccc2c(CCNc3ccc(Nc4ccncc4)cc3)c[nH]c2c1 [Serdemetan] + CCNC(=O)c1noc(-c2cc(C(C)C)c(O)cc2O)c1-c1ccc(CN2CCOCC2)cc1 [Luminespib] (partner 0.01 µM)
# Method in brief: as §1
# Serdemetan + Palbociclib = compound: c1ccc2c(CCNc3ccc(Nc4ccncc4)cc3)c[nH]c2c1 [Serdemetan] + CC(=O)c1c(C)c2cnc(Nc3ccc(N4CCNCC4)cn3)nc2n(C2CCCC2)c1=O [Palbociclib] (partner 0.5 µM)
# Method in brief: as §1
# Selisistat + Lapatinib = compound: C1CC(C2=C(C1)C3=C(N2)C=CC(=C3)Cl)C(=O)N [Selisistat] + CS(=O)(=O)CCNCc1ccc(-c2ccc3ncnc(Nc4ccc(OCc5cccc(F)c5)c(Cl)c4)c3c2)o1 [Lapatinib] (partner 2 µM)
# Method in brief: as §1
Cell Line,relative viability (Serdemetan + Phenformin; first compound 0.04 µM),relative viability (Serdemetan + Phenformin; first compound 0.1265 µM),relative viability (Serdemetan + Phenformin; first compound 0.4 µM),relative viability (Serdemetan + Phenformin; first compound 1.265 µM),relative viability (Serdemetan + Phenformin; first compound 4 µM),relative viability (Serdemetan + Luminespib; first compound 0.04 µM),relative viability (Serdemetan + Luminespib; first compound 0.1265 µM),relative viability (Serdemetan + Luminespib; first compound 0.4 µM),relative viability (Serdemetan + Luminespib; first compound 1.265 µM),relative viability (Serdemetan + Luminespib; first compound 4 µM),relative viability (Serdemetan + Palbociclib; first compound 0.04 µM),relative viability (Serdemetan + Palbociclib; first compound 0.1265 µM),relative viability (Serdemetan + Palbociclib; first compound 0.4 µM),relative viability (Serdemetan + Palbociclib; first compound 1.265 µM),relative viability (Serdemetan + Palbociclib; first compound 4 µM),relative viability (Selisistat + Lapatinib; first compound 0.4 µM),relative viability (Selisistat + Lapatinib; first compound 1.265 µM),relative viability (Selisistat + Lapatinib; first compound 4 µM),relative viability (Selisistat + Lapatinib; first compound 12.65 µM),relative viability (Selisistat + Lapatinib; first compound 40 µM)
NCI-H2342,0.597,0.538,0.628,0.537,0.393,0.738,0.722,0.704,0.508,0.506,0.528,0.494,0.508,0.481,0.489,–,–,–,–,–
SK-MES-1,0.634,0.646,0.605,0.576,0.456,0.789,0.731,0.799,0.617,0.772,0.271,0.309,0.285,0.302,0.325,0.479,0.525,0.411,0.504,0.426
HCC-366,0.665,0.627,0.547,0.0583,0.0869,–,–,–,–,–,0.351,0.281,0.0795,0.0413,0.0782,1.09,0.977,0.899,0.971,1.07
201T,0.435,0.451,0.432,0.353,0.432,1.05,1.07,1.03,0.895,0.692,0.367,0.353,0.341,0.33,0.327,1.11,1.02,1.02,1.03,1.08
HCC-827,0.415,0.406,–,0.314,0.366,0.606,0.563,–,0.288,0.344,0.454,0.448,–,0.412,0.303,0.192,0.189,0.203,0.182,0.186
NCI-H647,0.583,0.669,0.511,0.288,0.335,0.272,0.185,0.176,0.123,0.112,0.374,0.332,0.528,0.322,0.243,1.19,1.07,–,0.993,1.17
NCI-H2023,0.395,0.413,0.351,0.254,0.205,0.818,0.857,0.721,0.334,0.193,0.355,0.328,0.341,0.263,0.215,0.703,0.812,0.537,0.859,0.758
NCI-H520,0.513,0.657,0.596,–,0.38,0.255,0.204,0.232,–,0.205,0.261,0.215,0.252,0.179,0.193,0.811,0.898,0.814,0.751,0.766
RERF-LC-KJ,0.349,0.507,0.389,0.404,0.399,1.43,1.16,1.17,1.1,1.12,1.06,0.962,0.975,1.04,0.824,0.857,0.854,0.793,0.811,0.831
A-427,0.29,0.279,0.273,0.189,0.198,0.934,0.924,0.953,0.742,0.49,0.533,0.497,0.525,0.462,0.444,1.03,1.02,0.98,0.879,1.12
NCI-H441,0.793,0.917,0.791,0.709,0.517,0.381,0.298,0.321,0.316,0.325,0.206,0.212,0.18,0.147,0.225,–,–,–,–,–
NCI-H1703,–,–,–,–,–,–,–,–,–,–,–,–,–,–,–,1.1,1.06,1.12,1.05,1.05
NCI-H1792,0.268,0.316,0.283,0.127,0.198,0.471,0.407,0.422,0.415,0.298,0.661,0.7,0.596,0.395,0.56,0.917,0.89,–,0.829,0.926
Calu-6,–,–,–,–,–,–,–,–,–,–,–,–,–,–,–,1.06,1.09,1.02,0.949,0.895
SK-LU-1,0.484,0.573,0.538,–,0.343,0.19,0.201,0.223,–,0.207,0.37,0.393,0.365,0.319,0.346,0.924,0.825,0.936,0.958,0.867
PC-3 [JPC-3],0.475,0.494,0.486,0.482,0.532,0.651,0.612,0.621,0.654,0.494,0.562,0.492,0.528,0.467,0.519,0.439,0.457,0.398,0.487,0.417
EMC-BAC-2,0.527,0.543,0.514,0.382,0.494,1.14,1.12,1.13,0.616,0.636,0.508,0.523,0.493,0.479,0.463,0.869,0.875,0.848,0.894,0.848
LK-2,0.318,0.64,0.423,0.215,0.335,0.18,0.172,0.191,0.161,0.2,0.69,0.704,0.778,0.517,0.496,0.858,0.749,0.701,0.935,1.05
NCI-H2126,0.555,0.557,0.535,0.512,0.527,0.983,0.964,0.9,0.88,1.01,0.356,0.379,0.349,0.329,0.354,0.828,0.775,0.623,0.794,0.856
NCI-H3122,0.302,0.363,0.352,0.236,0.311,0.0976,0.0835,0.115,–,0.101,0.192,0.227,0.224,0.205,0.214,1.01,1.01,0.772,1.05,1.1
NCI-H1975,0.401,0.416,0.427,–,0.415,0.371,0.393,0.176,0.18,0.17,0.691,0.662,0.434,0.331,0.783,0.823,0.831,0.706,0.759,0.65

Cell Line,relative viability (Serdemetan + Phenformin; first compound 0.04 µM),relative viability (Serdemetan + Phenformin; first compound 0.1265 µM),relative viability (Serdemetan + Phenformin; first compound 0.4 µM),relative viability (Serdemetan + Phenformin; first compound 1.265 µM),relative viability (Serdemetan + Phenformin; first compound 4 µM),relative viability (Serdemetan + Luminespib; first compound 0.04 µM),relative viability (Serdemetan + Luminespib; first compound 0.1265 µM),relative viability (Serdemetan + Luminespib; first compound 0.4 µM),relative viability (Serdemetan + Luminespib; first compound 1.265 µM),relative viability (Serdemetan + Luminespib; first compound 4 µM),relative viability (Serdemetan + Palbociclib; first compound 0.04 µM),relative viability (Serdemetan + Palbociclib; first compound 0.1265 µM),relative viability (Serdemetan + Palbociclib; first compound 0.4 µM),relative viability (Serdemetan + Palbociclib; first compound 1.265 µM),relative viability (Serdemetan + Palbociclib; first compound 4 µM),relative viability (Selisistat + Lapatinib; first compound 0.4 µM),relative viability (Selisistat + Lapatinib; first compound 1.265 µM),relative viability (Selisistat + Lapatinib; first compound 4 µM),relative viability (Selisistat + Lapatinib; first compound 12.65 µM),relative viability (Selisistat + Lapatinib; first compound 40 µM)
NCI-H1944,0.197,0.213,0.202,0.128,0.154,0.664,0.679,0.691,0.249,0.306,0.364,0.355,0.31,0.253,0.221,0.797,0.767,–,0.746,0.854
LU99A,0.887,0.891,0.763,0.417,0.354,0.26,0.259,0.185,0.182,0.193,0.431,0.371,0.308,0.203,0.22,1.06,0.913,1.06,0.914,0.962
SW 1573,0.36,0.334,0.289,0.211,0.245,0.343,0.161,0.215,0.113,0.192,0.446,0.362,0.444,0.343,0.234,1.14,1.02,1.02,1.04,1.12
NCI-H2347,0.52,0.382,0.366,0.3,0.289,1.08,0.56,0.215,0.264,0.292,0.448,0.367,0.403,0.358,0.406,1.06,0.943,0.482,0.882,0.983
NCI-H2009,0.451,0.472,0.431,0.307,0.366,0.925,0.979,0.997,1.01,0.888,0.238,0.227,0.258,0.162,0.193,0.903,0.961,0.454,0.826,0.987
HCC-15,0.428,0.459,0.457,0.337,0.367,0.362,0.33,0.281,0.348,0.288,0.697,0.757,0.668,0.56,0.556,0.878,0.864,–,0.867,1.01
HCC-44,0.21,0.236,0.21,0.136,0.213,0.894,1.08,1.01,0.906,0.901,0.927,0.93,0.953,0.92,0.922,0.983,1.16,1.01,1.02,1.13
HCC-78,0.612,0.581,0.595,0.581,0.516,–,–,–,–,–,0.449,0.391,0.494,0.437,0.47,0.811,0.891,0.448,0.589,0.658
NCI-H1299,–,–,–,–,–,–,–,–,–,–,–,–,–,–,–,0.967,0.947,0.961,0.991,0.964
LCLC-103H,0.336,0.352,0.343,0.349,0.322,0.971,1.03,1,0.975,0.751,0.479,0.474,0.453,0.389,0.419,–,–,–,–,–
ChaGo-K-1,0.48,0.484,0.458,0.216,0.25,0.688,0.463,0.445,0.27,0.227,0.864,0.746,0.488,0.271,0.296,–,–,–,–,–
NCI-H1648,–,–,–,–,–,–,–,–,–,–,–,0.233,0.242,0.219,0.212,–,–,–,–,–
NCI-H596,0.812,0.692,0.735,0.63,0.438,1.02,0.955,0.861,0.59,0.602,–,–,–,–,–,1.16,1.16,1.03,1.14,1.12
NCI-H1563,0.689,0.591,0.567,0.586,0.589,0.499,0.481,0.555,0.458,0.436,–,–,–,–,–,1.03,0.95,0.881,0.825,0.921
A549,0.0903,0.163,0.209,0.0895,0.0987,–,–,–,–,–,–,–,–,–,–,1.05,0.937,1.12,0.974,0.95
NCI-H522,0.669,0.669,0.67,–,0.679,1.15,1.42,1.25,0.873,1.45,1.01,0.954,0.899,0.681,0.856,–,–,–,–,–
NCI-H1623,0.618,0.617,0.37,0.476,0.739,0.498,0.481,0.432,0.551,0.427,–,–,–,–,–,–,–,–,–,–
SW 900,0.551,0.487,0.674,0.295,0.365,0.185,0.168,0.196,0.164,0.176,0.615,0.58,0.59,0.451,0.361,–,–,–,–,–
IA-LM,–,–,–,–,–,–,–,–,–,–,–,–,–,–,–,0.723,0.931,0.817,–,0.894
EBC-1,–,–,–,–,–,–,–,–,–,–,–,–,–,–,–,0.256,0.208,0.224,0.243,0.244
